Experimental data reported in patent US8043826B2, “Device for monitoring inhibition of platelet function response” (Medical Innovations International, Inc., priority 2005, dated 2011).

Test system: platelets
Assay: Assaying platelet aspirin response: luciferin/luciferase light emission (extracellular ATP) in arachidonic-acid-treated diluted whole blood drawn before and after taking aspirin
Type: cell-based, human
Settings: individuals of FIGS. 2A and 2C; blood drawn after aspirin 325 mg; no-aspirin sample very steep
Description: Volunteers who had not taken aspirin in the previous 24 hours underwent a finger prick to draw blood. Blood (2 μl) was diluted into 1 ml of buffer (PBS, 0.9% NaCl, 10 mM sodium phosphate, pH 7.0) in a clear test tube. An aliquot (15 μl) of luciferin/luciferase solution (containing 10 mg/ml luciferin and 10 μg/ml luciferase) was added to the diluted blood. The solution was mixed and placed in a Zylux FEMPTOMASTER FB12 photon counter. A baseline reading of the light emission was taken. The test tube was then withdrawn, and 5 μl of 15 mM arachidonic acid was added to the solution and the solution was mixed. The test tube was then reinserted in the photon counter and light emission readings were taken for approximately 2 to 4 minutes.
The volunteer then swallowed or chewed an aspirin (325 mg). A blood sample was taken, and the process was repeated. The results from blood drawn from an individual before and after taking aspirin were compared.

For `CC(=O)Oc1ccccc1C(=O)O` [aspirin], the “slope of light emission vs. time after arachidonic acid is added, aspirin sample” value was “almost flat”.
